Measurements from patent publication US10730882B2, “2-aminoquinazoline derivatives as P70S6 kinase inhibitors” (SENTINEL ONCOLOGY LIMITED, priority 2015, dated 2020).
Where two headings read alike, the source gives them in different places.

Tests used:
p70S6K (h) = p70S6K (h) (Homo sapiens (Human), UniProt P23443); assay: p70S6K (h) kinase assay (radiometric, [γ-33P-ATP]); type: biochemical; conditions: read-out: (a) p70S6K1 IC50
Procedure: (a) Determination of p70S6 Inhibitory Activity
The ability of compounds of the invention to inhibit P70S6 kinase may be determined using the protocol below.
20 mM MOPS, 1 mM EDTA, 0.01% Brij-35, 5% Glycerol, 0.1% b-mercaptoethanol, 1 mg/mL BSA
In a final reaction volume of 25 μL, p70S6K (h) (5-10 mU) is incubated with 8 mM MOPS pH 7.0, 0.2 mM EDTA, 100 μM KKRNRTLTV, 10 mM Mg acetate and [γ-33P-ATP](specific activity approx. 500 cpm/pmol, concentration as required). The reaction is initiated by the addition of the MgATP mix. After incubation for 40 minutes at room temperature, the reaction is stopped by the addition of 5 μL of a 3% phosphoric acid solution. 10 μL of the reaction mixture is then spotted onto a P30 filtermat and washed three times for 5 minutes in 75 mM phosphoric acid and once in methanol prior to drying and scintillation counting.

[1] = in vivo cassette mouse model: brain and plasma concentrations following oral dosing; conditions: male CD-1 mice, 2.5 mg/kg per compound; for Kp at 3 h: brain and plasma, read-out: (b) Brain:Plasma ratio at 3 hours
Procedure: (b) Evaluation of Brain and Plasma Concentrations in an In Vivo Cassette Mouse Model
The compounds of this invention were evaluated in an in vivo cassette mouse model to determine brain and plasma concentrations following oral dosing. This is an industry-standard and recognised means to assess brain penetration of small molecules (for recent literature article, refer to: in vitro permeability analysis, pharmacokinetic and brain distribution study in mice of imperatorin, isoimperatorin and cnidilin in Radix Angelicae Dahuricae, Fitoterapia, Volume 85, March 2013, Pages 144-153). It is also recognised that higher brain concentrations (and higher ratios of brain:plasma concentration) lead to greater exposure in the brain—this is clearly advantageous if the brain is the site of action.
For a single cassette study, male CD-1 mice were used (n=3 per timepoint, three timepoints: 1.0 hr, 3.0 hr and 8.0 hr).
5 compounds were dosed PO per cassette (dose level 2.5 mg/kg per compound, dose conc. 0.25 mg/ml, dose volume 10.0 ml/kg).
Formulation used to solubilize compounds: 10% DMSO/90% hydroxypropyl-β-cyclodextrin (20% w/v aqueous)
Sampling was terminal and plasma and brain matrices were generated. To prepare plasma samples, protein was precipitated using acetonitrile. To prepare brain samples, homogenisation and protein precipitation was performed with acetonitrile. Samples were analysed using HPLC-TOF MS using electrospray ionisation.
The brain and plasma concentrations and brain-plasma ratios observed for the compounds tested are set out in the table below.

[2] = brain, read-out: (b) Brain conc. at 3 hours
[3] = plasma, read-out: (b) Plasma conc. at 3 hours

p70S6K (h), sequence (P23443 whole entry): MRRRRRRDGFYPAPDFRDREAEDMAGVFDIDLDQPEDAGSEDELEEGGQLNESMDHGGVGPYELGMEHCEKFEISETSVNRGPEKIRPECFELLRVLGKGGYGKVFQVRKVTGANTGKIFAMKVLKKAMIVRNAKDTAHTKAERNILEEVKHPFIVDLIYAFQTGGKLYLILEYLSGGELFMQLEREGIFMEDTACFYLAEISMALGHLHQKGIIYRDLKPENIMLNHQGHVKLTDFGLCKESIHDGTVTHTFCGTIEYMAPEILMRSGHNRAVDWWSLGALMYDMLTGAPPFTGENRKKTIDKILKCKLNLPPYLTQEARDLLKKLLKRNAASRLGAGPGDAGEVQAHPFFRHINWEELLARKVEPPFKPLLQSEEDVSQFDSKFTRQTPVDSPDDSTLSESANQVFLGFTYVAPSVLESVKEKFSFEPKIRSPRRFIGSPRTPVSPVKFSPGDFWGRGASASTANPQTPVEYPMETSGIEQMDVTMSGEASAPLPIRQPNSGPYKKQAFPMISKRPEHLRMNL

Structure (SMILES)	IC50 (p70S6K (h)) [µM]	also measured
CN(Cc1ccc(F)cc1)c1ncc2cc(-c3ncnc4[nH]ncc34)ccc2n1 [Example 6, (4-Fluorobenzyl)-[6-(1H-pyrazolo[3,4-d]pyrimidin-4-yl)-quinazolin-2-yl]-methylamine]	0.147	–
C[C@H](c1ccccc1)N(C)c1ncc2cc(-c3ncnc4[nH]ncc34)ccc2n1 [Example 8, ((R)-1-Phenyl-ethyl)-[6-(1H-pyrazolo[3,4-d]pyrimidin-4-yl)-quinazolin-2-yl]-methylamine]	0.108	–
Fc1ccc(CNc2ncc3cc(-c4ncnc5[nH]ncc45)ccc3n2)cc1 [Example 9, (4-Fluorobenzyl)-[6-(1H-pyrazolo[3,4-d]pyrimidin-4-yl)-quinazolin-2-yl]-amine]	0.055	–
Clc1cccc(CNc2ncc3cc(-c4ncnc5[nH]ncc45)ccc3n2)c1 [Example 11, (3-Chlorobenzyl)-[6-(1H-pyrazolo[3,4-d]pyrimidin-4-yl)-quinazolin-2-yl]-amine]	0.145	–
C[C@@H](Nc1ncc2ccc(-c3ncnc4[nH]ncc34)cc2n1)c1ccccc1 [Example 12, ((R)-1-Phenyl-ethyl)-[7-(1H-pyrazolo[3,4-d]pyrimidin-4-yl)-quinazolin-2-yl]-amine]	> 3	–
C[C@@H](Nc1ncc2cc(-c3ncnc4[nH]ccc34)ccc2n1)c1ccccc1 [Example 14, ((R)-1-Phenyl-ethyl)-[6-(7H-pyrrolo[2,3-d]pyrimidin-4-yl)-quinazolin-2-yl]-amine]	0.057	–
C[C@@H](Nc1ncc2cc(-c3ccnc4[nH]ccc34)ccc2n1)c1ccccc1 [Example 15, ((R)-1-Phenyl-ethyl)-[6-(1H-pyrrolo[2,3-b]pyridin-4-yl)-quinazolin-2-yl]-amine]	0.097	–
CN(C)CCN(Cc1ccccc1)c1ncc2cc(-c3ncnc4[nH]ncc34)ccc2n1 [Example 16, N-Benzyl-N′,N′-dimethyl-N-[6-(1H-pyrazolo[3,4-d]pyrimidin-4-yl)-quinazolin-2-yl]-ethane-1,2-diamine]	0.106	–
c1ccc(CN(C[C@@H]2COCCN2)c2ncc3cc(-c4ncnc5[nH]ncc45)ccc3n2)cc1 [Example 17, Benzyl-(R)-1-morpholin-3-ylmethyl-[6-(1H-pyrazolo[3,4-d]pyrimidin-4-yl)-quinazolin-2-yl]-amine]	0.11	–
C[C@@H](Nc1ncc2cc(-c3ncnc4[nH]cnc34)ccc2n1)c1ccccc1 [Example 20, ((R)-1-Phenyl-ethyl)-[6-(9H-purin-6-yl)-quinazolin-2-yl]-amine]	0.167	–
c1ccc(CNc2ncc3cc(-c4ncnc5[nH]ncc45)ccc3n2)cc1 [Example 21, Benzyl-[6-(1H-pyrazolo[3,4-d]pyrimidin-4-yl)-quinazolin-2-yl]-amine]	0.071	–
Cc1n[nH]c2ncnc(-c3ccc4nc(N[C@H](C)c5ccccc5)ncc4c3)c12 [Example 22, [6-(3-Methyl-1H-pyrazolo[3,4-d]pyrimidin-4-yl)-quinazolin-2-yl]-((R)-1-phenyl-ethyl)-amine]	0.131	–
COc1cccc(CNc2ncc3cc(-c4ncnc5[nH]ncc45)ccc3n2)c1 [Example 23, (3-Methoxy-benzyl)-[6-(1H-pyrazolo[3,4-d]pyrimidin-4-yl)-quinazolin-2-yl]-amine]	0.118	–
Fc1ccccc1CNc1ncc2cc(-c3ncnc4[nH]ncc34)ccc2n1 [Example 24, (2-Fluoro-benzyl)-[6-(1H-pyrazolo[3,4-d]pyrimidin-4-yl)-quinazolin-2-yl]-amine]	0.204	–
CS(=O)(=O)Nc1cccc(CNc2ncc3cc(-c4ncnc5[nH]ncc45)ccc3n2)c1 [Example 26, N-(3-{[6-(1H-Pyrazolo[3,4-d]pyrimidin-4-yl)-quinazolin-2-ylamino]-methyl}-phenyl)-methanesulfonamide]	0.067	–
C[C@H](Nc1ncc2cc(-c3ncnc4[nH]ncc34)ccc2n1)c1ccccc1 [Example 29, ((S)-1-Phenyl-ethyl)-[6-(1H-pyrazolo[3,4-d]pyrimidin-4-yl)-quinazolin-2-yl]-amine]	> 3	–
C[C@@H](Nc1ncc2cc(-c3ncnc4[nH]cc(C#N)c34)ccc2n1)c1ccccc1 [Example 34, 4-[2-((R)-1-Phenyl-ethylamino)-quinazolin-6-yl]-7H-pyrrolo[2,3-d]pyrimidine-5-carbonitrile]	0.346	–

The next compounds have a lower IC50 (p70S6K (h)) than those just listed; values first:

IC50 (p70S6K (h)) [µM]	Structure (SMILES)	also measured
0.049	Fc1ccc(CNc2ncc3cc(-c4ncnc5[nH]ncc45)ccc3n2)cc1F [Example 25, (3,4-Difluoro-benzyl)-[6-(1H-pyrazolo[3,4-d]pyrimidin-4-yl)-quinazolin-2-yl]-amine]	–
0.043	C[C@@H](Nc1ncc2cc(-c3ccnc4[nH]ncc34)ccc2n1)c1ccccc1 [Example 13, ((R)-1-Phenyl-ethyl)-[6-(1H-pyrazolo[3,4-b]pyridin-4-yl)-quinazolin-2-yl]-amine]	–
0.041	COc1cccc([C@@H](C)Nc2ncc3cc(-c4ncnc5[nH]ncc45)ccc3n2)c1 [Example 27, [(R)-1-(3-Methoxy-phenyl)-ethyl]-[6-(1H-pyrazolo[3,4-d]pyrimidin-4-yl)-quinazolin-2-yl]-amine]	–
0.033	CN(Cc1ccccc1)c1ncc2cc(-c3ncnc4[nH]ncc34)ccc2n1 [Example 7, Benzyl-[6-(1H-pyrazolo[3,4-d]pyrimidin-4-yl)-quinazolin-2-yl]-methylamine]	–
0.03	C[C@@H](Nc1ncc2cc(-c3ncnc4[nH]ncc34)ccc2n1)c1cccc(Cl)c1 [Example 2, ((R)-1-(3-Chloro-phenyl)-ethyl)-[6-(1H-pyrazolo[3,4-d]pyrimidin-4-yl)-quinazolin-2-yl]-amine]	–
0.028	C[C@@H](Nc1ncc2cc(-c3ncnc4[nH]ncc34)ccc2n1)c1c(F)cccc1F [Example 33, [(R)-1-(2,6-Difluoro-phenyl)-ethyl]-[6-(1H-pyrazolo[3,4-d]pyrimidin-4-yl)-quinazolin-2-yl]-amine]	–
0.025	c1ccc(CN(C[C@H]2COCCN2)c2ncc3cc(-c4ncnc5[nH]ncc45)ccc3n2)cc1 [Example 18, Benzyl-(S)-1-morpholin-3-ylmethyl-[6-(1H-pyrazolo[3,4-d]pyrimidin-4-yl)-quinazolin-2-yl]-amine]	–
0.024	OC[C@@H](Nc1ncc2cc(-c3ncnc4[nH]ncc34)ccc2n1)c1ccccc1 [Example 5, ((S)-2-Hydroxy-1-phenyl-ethyl)-[6-(1H-pyrazolo[3,4-d]pyrimidin-4-yl)-quinazolin-2-yl]-amine]	–
0.023	C[C@@H](Nc1ncc2cc(-c3ncnc4[nH]ncc34)ccc2n1)c1cccc(NS(C)(=O)=O)c1 [Example 30, N-(3-{(R)-1-[6-(1H-Pyrazolo[3,4-d]pyrimidin-4-yl)-quinazolin-2-ylamino]-ethyl}-phenyl)-methanesulfonamide]	–
0.022	C[C@@H](Nc1ncc2cc(-c3ncnc4[nH]ncc34)ccc2n1)c1ccc(F)cc1 [Example 4, ((R)-1-(4-Fluoro-phenyl)-ethyl)-[6-(1H-pyrazolo[3,4-d]pyrimidin-4-yl)-quinazolin-2-yl]-amine]	Kp at 3 h [1]: 2.2; concentration at 3 h [1, 2]: 1.51 µM; concentration at 3 h [1, 3]: 0.68 µM
0.021	C[C@@H](Nc1ncc2cc(-c3ncnc4[nH]ncc34)ccc2n1)c1cccc(F)c1 [Example 3, ((R)-1-(3-Fluoro-phenyl)-ethyl)-[6-(1H-pyrazolo[3,4-d]pyrimidin-4-yl)-quinazolin-2-yl]-amine]	Kp at 3 h [1]: 3.7; concentration at 3 h [1, 2]: 1.68 µM; concentration at 3 h [1, 3]: 0.46 µM
0.02	C[C@@H](Nc1ncc2cc(-c3ncnc4[nH]ncc34)ccc2n1)c1ccccc1O [Example 35, 2-{(R)-1-[6-(1H-Pyrazolo[3,4-d]pyrimidin-4-yl)-quinazolin-2-ylamino]-ethyl}-phenol]	–
0.018	Fc1cccc(CNc2ncc3cc(-c4ncnc5[nH]ncc45)ccc3n2)c1 [Example 10, (3-Fluorobenzyl)-[6-(1H-pyrazolo[3,4-d]pyrimidin-4-yl)-quinazolin-2-yl]-amine]	Kp at 3 h [1]: 1.7; concentration at 3 h [1, 2]: 0.84 µM; concentration at 3 h [1, 3]: 0.5 µM
0.01	OCC[C@@H](Nc1ncc2cc(-c3ncnc4[nH]ncc34)ccc2n1)c1ccccc1 [Example 31, (R)-3-Phenyl-3-[6-(1H-pyrazolo[3,4-d]pyrimidin-4-yl)-quinazolin-2-ylamino]-propan-1-ol]	–
